Here are results for seven molecules from ChEMBL document CHEMBL5252641, “Design, synthesis, and evaluation of benzofuran-based chromenochalcones for antihyperglycemic and antidyslipidemic activities” (RSC Med Chem, 2023).

Series [1] deals with L6. Nature of the series: Induction of glucose uptake in rat L6 cells expressing GLUT4 myc epitopes at 5 uM incubated for 24 hrs by scintillation counting method relative to control. The format is functional.
The test system of series [2] is Syrian golden hamster. The experiment in a line: Antidyslipidemic activity in Triton-induced hyperlipidemic Syrian golden hamster model assessed as decrease in triglyceride level at 50 mg/kg measured after 18 hrs. The format is functional, Mesocricetus auratus. Also on record: scale not given: the % may be the effect or the level left.
The test system of series [3] is Syrian golden hamster. Nature of the series: Antidyslipidemic activity in Triton-induced hyperlipidemic Syrian golden hamster model assessed as decrease in total cholesterol level at 50 mg/kg measured after 18 hrs. Also on record: scale not given: the % may be the effect or the level left. The format is functional, Mesocricetus auratus.
In series [4] the test system is Syrian golden hamster. The experiment in a line: Antidyslipidemic activity in Triton-induced hyperlipidemic Syrian golden hamster model assessed as increase in lecithin-cholesterol acyltransferase level at 50 mg/kg measured after 18 hrs. The format is functional, Mesocricetus auratus.
The test system of series [5] is Syrian golden hamster. Nature of the series: Antidyslipidemic activity in Triton-induced hyperlipidemic Syrian golden hamster model assessed as increase in post-heparin lipolytic activity at 50 mg/kg measured after 18 hrs. The format is functional, Mesocricetus auratus.
The subject of series [6] is Syrian golden hamster. The experiment in a line: Antidyslipidemic activity in Triton-induced hyperlipidemic Syrian golden hamster model assessed as decrease in PL level at 50 mg/kg measured after 18 hrs. The format is functional, Mesocricetus auratus. Also on record: scale not given: the % may be the effect or the level left.
Series [7] relates to L6. Nature of the series: Induction of glucose uptake in rat L6 cells expressing GLUT4 myc epitopes at 10 uM incubated for 24 hrs by scintillation counting method relative to control. The format is functional.
Series [8] is described as follows: Antioxidant activity assessed as superoxide anion radical scavenging activity at 100 uM incubated for 30 mins by spectrophotometric analysis. The format is functional.
A short description of series [9]: Antioxidant activity assessed as hydroxyl radical scavenging activity at 100 uM incubated for 90 mins by spectrophotometric analysis. The format is functional.
In series [10] the test system is L6. The experiment in a line: Induction of GLUT4myc translocation to rat L6 cells surface measured after 16 hrs by colorimetric assay. The format is functional, cell-based. As to conditions: dose 5-25 µM.
Series [11] relates to Rattus norvegicus. The experiment in a line: Antidiabetic activity in streptozotocin induced hyperglycemic Wistar rat model assessed as improvement in blood glucose level at 100 mg/kg,po measured upto 24 hrs relative to control. The format is functional.
The test system of series [12] is L6. Nature of the series: Induction of insulin stimulated glucose uptake in rat L6 cells expressing GLUT4 myc epitopes at 10 uM preincubated for 16 hrs followed by 3 hrs incubation under serum deprived medium prior to insulin stimulation for 20 mins. The format is functional, cell-based. As to conditions: time 1160.0 min.
Series [13] concerns L6. Nature of the series: Cytotoxicity against rat L6 cells assessed as reduction in cell viability at 5 to 100 uM incubated overnight by MTT assay. The following applies: l6, 100 µM, dose 5-100 µM. The format is toxicity, cell-based.
Series [14] relates to Rattus norvegicus. The experiment in a line: Antidiabetic activity in streptozotocin induced hyperglycemic Wistar rat model assessed as improvement in blood glucose level at 100 mg/kg,po measured upto 5 hrs relative to control. The format is functional.
Series [15] deals with L6. The experiment in a line: Induction of GLUT4myc translocation to rat L6 cells surface at 5 to 25 uM incubated for 20 mins followed by insulin stimulation by colorimetric assay. The format is functional, cell-based. The following applies: dose 5-25 µM.
Series [16] concerns L6. The experiment in a line: Cytotoxicity against rat L6 cells assessed as reduction in cell viability at 10 uM by MTT assay. The following applies: l6, 10 µM. The format is toxicity, cell-based. In general terms: Tetrazolium assays rely on reduction of a dye to a coloured formazan, in cell work by metabolically active cells.
Series [17] deals with Mus musculus. Nature of the series: Antidiabetic activity in db/db mouse assessed as decrease in rise of postprandial hyperglycemia at 30 mg/kg measured after 15 days post glucose challenge by oral glucose tolerance test relative to control. As to conditions: time 15 day. Also on record: scale not given: the % may be the effect or the level left. The format is functional.

The species entered for series [18] is Mus musculus. Nature of the series: Antidyslipidemic activity in db/db mouse assessed as decrease in serum triglyceride level measured after 15 days relative to control. Also on record: scale not given: the % may be the effect or the level left. The following applies: time 15 day. The format is functional.
The test system of series [19] is Mus musculus. Nature of the series: Antidiabetic activity in db/db mouse assessed as decrease in fasting blood glucose level at 30 mg/kg administered for 15 consecutive days by oral glucose tolerance test relative to control. The format is functional. Also on record: scale not given: the % may be the effect or the level left. The following applies: time 15 day.

Series [20] deals with Mus musculus. The experiment in a line: Antidiabetic activity in db/db mouse assessed as decrease in postprandial blood glucose at 30 mg/kg measured after 9 days. The format is functional, organism-based. The following applies: time 9.0 day.
For series [21], the species on record is Mus musculus. The experiment in a line: Antidiabetic activity in db/db mouse assessed as increase in GLUT4 level incubated for 15 mins by Western blot analysis. The format is functional, organism-based.
Series [22] relates to Mus musculus. The experiment in a line: Antidiabetic activity in db/db mouse assessed as decrease in rise of postprandial hyperglycemia at 30 mg/kg measured after 10 days post glucose challenge by oral glucose tolerance test relative to control. The format is functional. Also on record: scale not given: the % may be the effect or the level left. The following applies: time 10 day.

Series [23] is filed under the species Mus musculus. The experiment in a line: Antidyslipidemic activity in db/db mouse assessed as increase in serum HDL-cholesterol level measured after 15 days relative to control. The format is functional. As to conditions: time 15 day.
For series [24], the species on record is Mus musculus. The experiment in a line: Antidyslipidemic activity in db/db mouse assessed as decrease in serum cholesterol level measured after 15 days relative to control. The format is functional. Also on record: scale not given: the % may be the effect or the level left. The following applies: time 15 day.
In series [25] the test system is Mus musculus. Nature of the series: Antidiabetic activity in db/db mouse assessed as decrease in HOMA index at 30 mg/kg administered for 15 consecutive days by oral glucose tolerance test relative to control. The format is functional. Also on record: scale not given: the % may be the effect or the level left. As to conditions: time 15 day.
The species entered for series [26] is Mus musculus. Nature of the series: Antidiabetic activity in db/db mouse assessed as increase in Akt phosphorylation incubated for 15 mins by Western blot analysis. The format is functional, organism-based. In general terms: Immunoblotting shows a protein as a band on a membrane.
Series [27] concerns Mus musculus. Nature of the series: Antidiabetic activity in db/db mouse assessed as decrease in serum insulin levels at 30 mg/kg administered for 15 consecutive days by oral glucose tolerance test relative to control. The format is functional. Also on record: scale not given: the % may be the effect or the level left. The following applies: time 15 day.
Series [28] is filed under the species Mus musculus. Nature of the series: Antidyslipidemic activity in db/db mouse assessed as effect on body weight measured after 9 days. The format is functional, organism-based. The following applies: time 9.0 day.

The source made the active and inactive calls. The calls are words filed in the database; no cut-off is given here.

With `CC1(C)C=Cc2c(ccc(C(=O)/C=C/c3ccc4occc4c3)c2O)O1`, the Activity is listed as 96% with L6 [1]; 15% with Syrian golden hamster [2]; 13% in the series with Syrian golden hamster [3]; 17% in the series on Syrian golden hamster [4]; 19% with Syrian golden hamster [5]; 10% with Syrian golden hamster [6]. The Activity in the series with L6 [7] amounted to 161.5%; in series [8], 16; in series [9], 12.

Regarding `COc1ccc(C(=O)c2cc3cc(/C=C/C(=O)c4c(O)ccc5c4OC(C)(C)C=C5)ccc3o2)cc1`, the Activity in the series with L6 [1] was 93%; with Syrian golden hamster [2], 13%; with L6 [10] it was “Dose-Dependent Effect”; in the series with Syrian golden hamster [3], 10%; in the series on Rattus norvegicus [11], 16.8%; in the series on Syrian golden hamster [4] it was 12%. Further, the Activity is 17% in the series on Syrian golden hamster [5]; “Non-Toxic” with L6 [13]; 11% in the series on Syrian golden hamster [6]; 220.5% with L6 [7]; 18.7% in the series with Rattus norvegicus [14]; 10 in series [8]. Moreover, in [9], the Activity is 7. In addition, in the series on L6 [12], the result was inactive. The outcome with L6 [15] was Active.

For `CC1(C)C=Cc2ccc(O)c(C(=O)/C=C/c3ccc4occc4c3)c2O1`, the Activity in the series on Syrian golden hamster [2] is on record as 11%; with Syrian golden hamster [3], 14%; in the series with Syrian golden hamster [4] it was 18%; in the series with Syrian golden hamster [5], 21%; in the series on L6 [16], “Toxic”; in the series with Syrian golden hamster [6], 19%. The Activity in series [8] stood at 18; in [9] it was 15.

As to `CC1(C)C=Cc2ccc(O)c(C(=O)/C=C/c3ccc4oc(C(=O)c5ccccc5)cc4c3)c2O1`, the Activity is 29.1% in the series with Mus musculus [17]; 26.5% in the series listed under Mus musculus [18]; 82% with L6 [1]; 25% in the series with Mus musculus [19]; 18% in the series on Syrian golden hamster [2]; “Dose-Dependent Effect” in the series on L6 [10]. Moreover, the Activity in the series on Syrian golden hamster [3] was found to be 21%; in the series on Rattus norvegicus [11], 25.1%; with Mus musculus [22] it was 18.2%; with Syrian golden hamster [4], 18%; in the series listed under Mus musculus [23] it was 45.2%; in the series filed under Mus musculus [24] it was 21%. For the same molecule, the Activity in the series on Syrian golden hamster [5] is on record as 24%; with Mus musculus [25] it was 39.8%; with L6 [13], “Non-Toxic”; with Syrian golden hamster [6], 24%; in the series on L6 [7] it was 249%; in the series on Rattus norvegicus [14], 22.8%. Moreover, the results for the Activity (in series [8]; in the series on Mus musculus [27]; in series [9]) were 18, 23.8% and 16, respectively. Further, in the series with L6 [12], the result was inactive. For the same molecule, the outcome with Mus musculus [20], in the series filed under Mus musculus [21], in the series on L6 [15], in the series listed under Mus musculus [26] and in the series listed under Mus musculus [28] was Active.

For the molecule `CC1(C)C=Cc2c(O)c(C(=O)/C=C/c3ccc4occc4c3)c3c(c2O1)C=CC(C)(C)O3`, the Activity is on record as 19% in the series with Syrian golden hamster [2]; 11% in the series on Syrian golden hamster [3]; 0.81% with Rattus norvegicus [11]; 15% with Syrian golden hamster [4]; 22% in the series on Syrian golden hamster [5]; 13% in the series on Syrian golden hamster [6]. Moreover, the Activity with L6 [7] turned out to be 124%; in the series on Rattus norvegicus [14], 2.3%; in [8], 16; in [9], 12.

Turning to `CC(C)=CCCC1(C)C=Cc2c(ccc(C(=O)/C=C/c3ccc4occc4c3)c2O)O1` (configuration not stated), the Activity in the series with L6 [1] turned out to be 73.5%; in the series with Syrian golden hamster [2] it was 11%; in the series with Syrian golden hamster [3], 16%; with Rattus norvegicus [11] it was 17.2%; in the series on Syrian golden hamster [4], 20%; with Syrian golden hamster [5], 21%. Further, the Activity was 19% with Syrian golden hamster [6]; 188% in the series with L6 [7]; 19.2% with Rattus norvegicus [14]; 14 in [8]; 16 in [9].

Consider `CN(C)C(=N)NC(=N)N` [METFORMIN], for which the Activity with Rattus norvegicus [11] worked out at 27.9%; in the series with Rattus norvegicus [14] it was 30.5%.
